For assay [1], the system named is R6/2 brain slices. Put plainly: polyQ density (immunohistochemical detection of PolyQ inclusions) in R6/2 corticostriatal slice cultures. It counts as cell-based, mouse. Particulars: DIV14 to DIV21, read at DIV21, vs DMSO treated R6/2 slices. As to the method:
(§1) Slice cultures were established according to described procedures. (L. Stoppini et al., J. Neurosci. Methods 37(2): 173-82 (1991) and N. Gogolla et al., Nat. Protoc. 1(3): 1165-71 (2006)). A particular cutting angle was utilized to produce brain slices with a preserved cortico-striatal pathway. Finally, slices were selected, placed on Millicel (Millipore, PICM03050) and cultured in 6-well dishes at 35° C. and 5% CO2 in the presence of 1 ml of culture medium.
(§2) Slices were treated with different mTOR inhibitors from DIV14 to DIV21. The culture medium was exchanged every second day, and drugs were added in the fresh culture medium. We used this protocol to evaluate the action of the following mTOR inhibitors: RTB101 (50 and 300 nM in DMSO), everolimus (250 nM in DMSO), CCG168 (300 nM in DMSO), and everolimus+RTB101 (250 and 10, 250and 30 and 250 and 50 nM in DMSO). […]
(§3) High resolution images were acquired on an upright Zeiss LSM700 confocal microscope, using a Plan-Neofluar 40x/1.3 oil immersion objective. For the quantification of the PolyQ density and DARPP-32/NeuF signal intensity, at least three confocal 3D stacks/slice were acquired in striatum for each experiment (five slices per condition), and analyzed using Imaris 4.2 (BitplaneAG) and Image J softwares. All data are expressed as mean±SEM. […]

Assay [2] relates to R6/2 brain slices. Description: Striatal degeneration: DARPP-32 intensity and neurofilament levels in R6/2 slice cultures. Particulars: single low-concentrations (everolimus 250 nM; RTB101 50 nM), DIV21. It is filed as cell-based, mouse. As to the method:
as §1, §2, §3

SMILES strings stand for the structures.

Turning to `Cn1c(=O)n(-c2ccc(C(C)(C)C#N)cc2)c2c3cc(-c4cnc5ccccc5c4)ccc3ncc21` [RTB101, 2-methyl-2-[4-(3-methyl-2-oxo-8-quinolin-3-yl-2,3-dihydro-imidazo[4,5-c]quinolin-1-yl)-phenyl]-propionitrile], the polyQ density entry with R6/2 brain slices [1] (50 nM RTB101 single treatment) is listed as “no effect”.

As for `CO[C@H]1C[C@@H]2CC[C@@H](C)[C@@](O)(O2)C(=O)C(=O)N2CCCC[C@H]2C(=O)O[C@H]([C@H](C)C[C@@H]2CC[C@@H](OCCO)[C@H](OC)C2)CC(=O)[C@H](C)/C=C(\C)[C@@H](O)[C@@H](OC)C(=O)[C@H](C)C[C@H](C)/C=C/C=C/C=C/1C` [everolimus, (1R,9S,12S,15R,16E,18R,19R,21R,23S,24E,26E,28E,30S,32S,35R)-1,18-dihydroxy-12-{(1R)-2-[(1S,3R,4R)-4-(2-hydroxyethoxy)-3-methoxycyclohexyl]-1-methylethyl}-19,30-dimethoxy-15,17,21,23,29,35-hexamethyl-11,36-dioxa-4-aza-tricyclo[30.3.1.04,9]hexatriaconta-16,24,26,28-tetraene-2,3,10,14,20-pentaone], in the assay with R6/2 brain slices [2], the DARPP-32 level result is given as “ineffective” and the neurofilament level entry was “ineffective”. The polyQ density result in the assay on R6/2 brain slices [1] (250 nM everolimus single treatment) is reported as “no effect”.

The record behind these values is US10596165B2, “Combination therapies” (resTORbio, Inc., priority 2018, dated 2020).
